Patent US20260297042A1, “BIARYLAMIDE DERIVATIVES AND THEIR USE AS PKMYT1 INHIBITORS” (CANCER RESEARCH TECHNOLOGY LIMITED, priority 2023, published 2026)

Key:
Human PKMYT1 = target: T1, Human PKMYT1 (Homo sapiens, UniProt Q99640); assay: PKMYT1 biochemical ADP-Glo enzymatic assay; conditions: ADP-Glo; 15 nM PKMYT1 kinase domain, 500 µM ATP, 60 minutes at 26° C.; banded
T1 construct: Human PKMYT1 75-362 was cloned as a TEV cleavable 6xHis fusion; 6xHis (TEV cleavable) (cleaved yes); made in house; host or cells: bacterial cells
T1 sequence (Q99640 75-362): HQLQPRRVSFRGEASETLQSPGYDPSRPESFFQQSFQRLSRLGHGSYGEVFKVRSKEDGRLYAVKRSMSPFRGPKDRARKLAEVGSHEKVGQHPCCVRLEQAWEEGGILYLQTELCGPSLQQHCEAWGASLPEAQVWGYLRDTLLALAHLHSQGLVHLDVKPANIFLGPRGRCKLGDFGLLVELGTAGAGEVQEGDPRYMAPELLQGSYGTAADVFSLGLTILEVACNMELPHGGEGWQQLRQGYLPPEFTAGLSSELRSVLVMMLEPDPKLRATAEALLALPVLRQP
Summary of the method: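 Compounds were titrated over 10 points (3-fold steps), then 15 nM purified PKMYT1 kinase domain (aa 75-362) and 500 µM ATP were added in pH 7.5 HEPES buffer. After 60 min at 26 °C, remaining ATP was depleted and ADP converted to luminescence for IC50 fitting.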

OVCAR 3 cells = assay: Cancer cell line proliferation assay, ATP-based cell viability (Cell Titre Glow), OVCAR 3 (CCNE1-amplified); conditions: KYSE30 (normal CCNE1) GI50 vs. OVCAR 3 (CCNE1-amplified) GI50
Summary of the method: (§1)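 Sensitivity to PKMYT1 inhibitors was measured by ATP-based luminescence (CellTiter-Glo) as the proliferation endpoint. GI50, the concentration giving 50% growth inhibition, was estimated from curve fits.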

[1] = target: T2, Cellular PKMYT1 Biomarker CDK1 pT14 (Homo sapiens, UniProt Q99640); assay: Inhibition of cellular PKMYT1 biomarker CDK1 pT14 in OVCAR 3 cells (immunoblot); format: cell-based; conditions: 20 hours incubation
T2 construct: read-out CDK1 phospho-T14 immunoblot
T2 sequence (Q99640 1-499): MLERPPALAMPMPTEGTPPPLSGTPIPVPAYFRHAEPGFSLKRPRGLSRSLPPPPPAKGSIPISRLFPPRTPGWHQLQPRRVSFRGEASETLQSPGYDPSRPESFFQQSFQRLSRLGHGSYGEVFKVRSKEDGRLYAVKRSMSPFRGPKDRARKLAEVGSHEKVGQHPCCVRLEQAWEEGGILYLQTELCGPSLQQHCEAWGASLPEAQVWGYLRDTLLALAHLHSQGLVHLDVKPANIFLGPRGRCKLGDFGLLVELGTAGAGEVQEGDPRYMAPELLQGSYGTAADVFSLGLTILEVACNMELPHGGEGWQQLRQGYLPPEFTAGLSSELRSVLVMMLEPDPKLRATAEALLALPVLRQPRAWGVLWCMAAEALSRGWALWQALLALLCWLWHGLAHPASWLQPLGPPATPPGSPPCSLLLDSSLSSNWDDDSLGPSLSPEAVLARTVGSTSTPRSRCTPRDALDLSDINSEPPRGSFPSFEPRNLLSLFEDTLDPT
Description: To determine compound PKMYT1 IC50 in a cellular assay, OVCAR 3 cells were incubated at 37° C. in 5% CO2 atmosphere. The cells were maintained in RPMI medium supplemented with 20% foetal bovine serum, 1X non essential amino acids, 1 mM sodium pyruvate, Glutamax and insulin. Cells were seeded into 12-well plates at low density (50,000-200,000 cells per well), grown to confluence (~350-400,000 cells per well) and then treated with a range of concentrations of PKMYT1 inhibitors. The cells were incubated 20 hours and then harvested into 1X Laemmli Sample Buffer (BIORAD) without 2-mercaptoethanol, heated to 95° C. for 5 min, centrifuged and sonicated using a microprobe for 15 sec, 21W to shear the DNA.
The samples were analysed by immunoblot on a Jess Automated Western Blot System (BioTechne). The samples were separated using the 12-230 kDa Separation Module (BioTechne,) and blotted using an anti-CDK1 phospho T14 antibody (Abcam, #ab58509) and an anti-vinculin antibody (Abcam, #126002). Specific binding was detected by fluorescence using the Anti-Rabbit Detection Module (BioTechne, #DM-001), quantified using Compass for Simple Western software, and IC50 values were calculated by regression analysis in GraphPad Prism.

KYSE-30 cells = assay: Cancer cell line proliferation assay, ATP-based cell viability (Cell Titre Glow), KYSE-30 (normal CCNE1); conditions: Homo sapiens, KYSE-30 cells (normal CCNE1), concentration that achieves 50% cell growth proliferation inhibition, read-out: KYSE30 Gl50
Summary of the method: as §1

WEE1 = target: T3, WEE1 (Homo sapiens, UniProt P30291); assay: Selectivity versus WEE1 assay (ADP-Glo enzymatic assay); format: biochemical; conditions: banded; for IC50: ADP-Glo, 15 nM WEE1, 60 minutes at 26° C.; for PKMYT1 vs. WEE1 selectivity: fold difference in selectivity for PKMYT1 over WEE1, ">N" = at least in this band but could be higher
T3 construct: purchased Thermo Fisher PR7373A
T3 sequence (P30291 whole entry): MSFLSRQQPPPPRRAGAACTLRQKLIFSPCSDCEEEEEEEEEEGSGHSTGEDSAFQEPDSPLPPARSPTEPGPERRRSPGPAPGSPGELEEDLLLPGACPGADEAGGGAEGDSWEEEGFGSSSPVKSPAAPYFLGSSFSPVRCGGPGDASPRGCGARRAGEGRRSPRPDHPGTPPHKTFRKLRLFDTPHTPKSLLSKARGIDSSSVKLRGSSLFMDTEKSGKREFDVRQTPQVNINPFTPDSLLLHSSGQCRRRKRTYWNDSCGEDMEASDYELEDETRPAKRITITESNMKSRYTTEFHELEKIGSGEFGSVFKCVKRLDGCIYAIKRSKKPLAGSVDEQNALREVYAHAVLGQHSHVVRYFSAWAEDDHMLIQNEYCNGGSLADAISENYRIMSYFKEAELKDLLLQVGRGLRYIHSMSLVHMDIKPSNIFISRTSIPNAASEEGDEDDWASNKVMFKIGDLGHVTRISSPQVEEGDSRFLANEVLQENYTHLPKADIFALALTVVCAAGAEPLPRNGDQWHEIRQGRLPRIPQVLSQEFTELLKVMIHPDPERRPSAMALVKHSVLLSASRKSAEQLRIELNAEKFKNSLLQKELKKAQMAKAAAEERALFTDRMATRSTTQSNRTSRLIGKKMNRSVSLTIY
Summary of the method: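 Compounds were pre-dispensed, enzyme (15 nM final) was added in pH 7.5 HEPES buffer, and ATP ([…]) then started a 60 min incubation at 26° C. Afterwards ADP-Glo reagents were added in turn and luminescence was measured to derive IC50 values.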

SMILES: Cc1ccc(O)c(C)c1NC(=O)c1cnc(Nc2ccc(N3CCC(F)(F)CC3)cn2)s1 [BAA-308, 2-((5-(4,4-difluoropiperidin-1-yl)pyridin-2-yl)amino)-N-(3-hydroxy-2,6-dimethylphenyl)thiazole-5-carboxamide]
- IC50 (Human PKMYT1): 50 to 1000 nM
- Selectivity ratio KYSE30 Gl50 vs. OVCAR3 Gl50 (OVCAR 3 cells): X (3-20 fold)
- IC50 [1]: < 100 nM
- GI50 (KYSE-30 cells): 500 to 5000 nM
- IC50 (WEE1): > 11000 nM
- PKMYT1 vs. WEE1 selectivity (WEE1): X (100-<1000 fold)

SMILES: Cc1ccc(NC(=O)c2ccc(F)cc2)nc1Nc1ncc(C(=O)Nc2c(C)ccc(O)c2C)s1 [BAA-309, 2-((6-(4-fluorobenzamido)-3-methylpyridin-2-yl)amino)-N-(3-hydroxy-2,6-dimethylphenyl)thiazole-5-carboxamide]
- IC50 (Human PKMYT1): 50 to 1000 nM
- Selectivity ratio KYSE30 Gl50 vs. OVCAR3 Gl50 (OVCAR 3 cells): Y (>20 fold)
- IC50 [1]: < 100 nM
- GI50 (KYSE-30 cells): 500 to 5000 nM
- IC50 (WEE1): > 11000 nM
- PKMYT1 vs. WEE1 selectivity (WEE1): Y (1000-5000 fold)

SMILES: Cc1cc(Nc2ncc(C(=O)Nc3c(C)ccc(O)c3C)s2)nc(N2CCC(F)(F)CC2)n1 [BAA-313, 2-((2-(4,4-difluoropiperidin-1-yl)-6-methylpyrimidin-4-yl)amino)-N-(3-hydroxy-2,6-dimethylphenyl)thiazole-5-carboxamide]
- IC50 (Human PKMYT1): 50 to 1000 nM
- Selectivity ratio KYSE30 Gl50 vs. OVCAR3 Gl50 (OVCAR 3 cells): Y (>20 fold)
- IC50 [1]: < 100 nM
- GI50 (KYSE-30 cells): 500 to 5000 nM
- IC50 (WEE1): > 11000 nM
- PKMYT1 vs. WEE1 selectivity (WEE1): X (100-<1000 fold)

SMILES: Cc1ccc(O)c(C)c1NC(=O)c1cnc(Nc2cccc(N3CCC(F)(F)CC3)n2)s1 [BAA-314, 2-((6-(4,4-difluoropiperidin-1-yl)pyridin-2-yl)amino)-N-(3-hydroxy-2,6-dimethylphenyl)thiazole-5-carboxamide]
- IC50 (Human PKMYT1): 50 to 1000 nM
- Selectivity ratio KYSE30 Gl50 vs. OVCAR3 Gl50 (OVCAR 3 cells): Y (>20 fold)
- IC50 [1]: < 100 nM
- GI50 (KYSE-30 cells): 500 to 5000 nM
- IC50 (WEE1): 1000 to 11000 nM
- PKMYT1 vs. WEE1 selectivity (WEE1): W (10-<100 fold)

SMILES: Cc1ccc(O)c(C)c1NC(=O)c1cnc(Nc2cccc(-c3ccc(C(F)(F)F)cc3)n2)s1 [BAA-316, N-(3-hydroxy-2,6-dimethylphenyl)-2-((6-(4-(trifluoromethyl)phenyl)pyridin-2-yl)amino)thiazole-5-carboxamide]
- IC50 (Human PKMYT1): 50 to 1000 nM
- Selectivity ratio KYSE30 Gl50 vs. OVCAR3 Gl50 (OVCAR 3 cells): Y (>20 fold)
- IC50 [1]: 100 to 1000 nM
- GI50 (KYSE-30 cells): 500 to 5000 nM
- IC50 (WEE1): > 11000 nM
- PKMYT1 vs. WEE1 selectivity (WEE1): Y (1000-5000 fold)

SMILES: COc1cc(-c2cccc(Nc3ncc(C(=O)Nc4c(C)ccc(O)c4C)s3)n2)cc(OC)c1OC [BAA-317, N-(3-hydroxy-2,6-dimethylphenyl)-2-((6-(3,4,5-trimethoxyphenyl)pyridin-2-yl)amino)thiazole-5-carboxamide]
- IC50 (Human PKMYT1): < 50 nM
- Selectivity ratio KYSE30 Gl50 vs. OVCAR3 Gl50 (OVCAR 3 cells): Y (>20 fold)
- IC50 [1]: < 100 nM
- GI50 (KYSE-30 cells): 500 to 5000 nM
- IC50 (WEE1): > 11000 nM
- PKMYT1 vs. WEE1 selectivity (WEE1): Y (1000-5000 fold)

SMILES: Cc1cc(Nc2ncc(C(=O)Nc3c(C)ccc(O)c3C)s2)nc(OCC(F)(F)F)n1 [BAA-319, N-(3-hydroxy-2,6-dimethylphenyl)-2-((6-methyl-2-(2,2,2-trifluoroethoxy)pyrimidin-4-yl)amino)thiazole-5-carboxamide]
- IC50 (Human PKMYT1): < 50 nM
- Selectivity ratio KYSE30 Gl50 vs. OVCAR3 Gl50 (OVCAR 3 cells): Y (>20 fold)
- IC50 [1]: < 100 nM
- GI50 (KYSE-30 cells): 500 to 5000 nM
- IC50 (WEE1): > 11000 nM
- PKMYT1 vs. WEE1 selectivity (WEE1): Y (1000-5000 fold)

SMILES: Cc1ccc(O)c(C)c1NC(=O)c1cnc(Nc2cccc(NC(=O)c3ccc(F)cc3)n2)s1 [BAA-320, 2-((6-(4-fluorobenzamido)pyridin-2-yl)amino)-N-(3-hydroxy-2,6-dimethylphenyl)thiazole-5-carboxamide]
- IC50 (Human PKMYT1): < 50 nM
- Selectivity ratio KYSE30 Gl50 vs. OVCAR3 Gl50 (OVCAR 3 cells): Y (>20 fold)
- IC50 [1]: < 100 nM
- GI50 (KYSE-30 cells): 500 to 5000 nM
- IC50 (WEE1): > 11000 nM
- PKMYT1 vs. WEE1 selectivity (WEE1): Y (1000-5000 fold)

SMILES: Cc1ccc(O)c(C)c1NC(=O)c1cnc(Nc2cc(C(F)(F)F)cc(Cl)n2)s1 [BAA-321, 2-((6-chloro-4-(trifluoromethyl)pyridin-2-yl)amino)-N-(3-hydroxy-2,6-dimethylphenyl)thiazole-5-carboxamide]
- IC50 (Human PKMYT1): 50 to 1000 nM
- Selectivity ratio KYSE30 Gl50 vs. OVCAR3 Gl50 (OVCAR 3 cells): Y (>20 fold)
- IC50 [1]: 100 to 1000 nM
- GI50 (KYSE-30 cells): > 5000 nM
- IC50 (WEE1): > 11000 nM
- PKMYT1 vs. WEE1 selectivity (WEE1): X (100-<1000 fold)

SMILES: Cc1ccc(NC(=O)C(C)(C)C)nc1Nc1ncc(C(=O)Nc2c(C)ccc(O)c2C)s1 [BAA-323, N-(3-hydroxy-2,6-dimethylphenyl)-2-((3-methyl-6-pivalamidopyridin-2-yl)amino)thiazole-5-carboxamide]
- IC50 (Human PKMYT1): < 50 nM
- Selectivity ratio KYSE30 Gl50 vs. OVCAR3 Gl50 (OVCAR 3 cells): Y (>20 fold)
- IC50 [1]: < 100 nM
- GI50 (KYSE-30 cells): 500 to 5000 nM
- IC50 (WEE1): > 11000 nM
- PKMYT1 vs. WEE1 selectivity (WEE1): Y (1000-5000 fold)

SMILES: Cc1ccc(O)c(C)c1NC(=O)c1cnc(Nc2cccc(N(C)C(=O)c3c(F)cc(F)cc3F)n2)s1 [BAA-325, N-(3-hydroxy-2,6-dimethylphenyl)-2-((6-(2,4,6-trifluoro-N-methylbenzamido)pyridin-2-yl)amino)thiazole-5-carboxamide]
- IC50 (Human PKMYT1): 50 to 1000 nM
- Selectivity ratio KYSE30 Gl50 vs. OVCAR3 Gl50 (OVCAR 3 cells): X (3-20 fold)
- IC50 [1]: < 100 nM
- GI50 (KYSE-30 cells): > 5000 nM
- IC50 (WEE1): > 11000 nM
- PKMYT1 vs. WEE1 selectivity (WEE1): Y (1000-5000 fold)

SMILES: Cc1ccc(O)c(C)c1NC(=O)c1cnc(Nc2cc(C(F)(F)F)nc(N3CCOCC3)n2)s1 [BAA-326, N-(3-hydroxy-2,6-dimethylphenyl)-2-((2-morpholino-6-(trifluoromethyl)pyrimidin-4-yl)amino)thiazole-5-carboxamide]
- IC50 (Human PKMYT1): 50 to 1000 nM
- Selectivity ratio KYSE30 Gl50 vs. OVCAR3 Gl50 (OVCAR 3 cells): Y (>20 fold)
- IC50 [1]: < 100 nM
- GI50 (KYSE-30 cells): 500 to 5000 nM
- IC50 (WEE1): > 11000 nM
- PKMYT1 vs. WEE1 selectivity (WEE1): X (100-<1000 fold)
